Assay results: patent publication US20220273683A1, “BORON-CONTAINING SMALL MOLECULES” (Bill & Melinda Gates Foundation, priority 2016, published 2022)
≈ marks a conversion by molar mass, not a printed value.

Tests used:
[1] = test system: Staphylococcus aureus, MRSA (ATCC 33591); experiment: Antibacterial MIC assay (microbroth dilution, CLSI); format: cell-based; settings: 35° C., 16-20 hours
From the text: (§1) All MIC testing of bacteria followed the Clinical and Laboratory Standards Institute (CLSI) guidelines for antimicrobial testing of aerobic bacteria (Methods for Dilution Antimicrobial Susceptibility Tests for Bacteria that Grow Aerobically; Approved Standard—Tenth Edition, M07-A10; Performance Standards for Antimicrobial Susceptibility Testing; Twenty-fifth Informational Supplement, M100-S25).
(§2) Briefly, the microbroth dilution MIC method was used to quantitatively measure the in vitro antibacterial activity of a compound against a given bacterial isolate. The following bacterial strains were evaluated: Staphylococcus aureus, MRSA (ATCC 33591) and Streptococcus pneumoniae (ATCC 49619). Bacteria were grown in cation-adjusted Mueller-Hinton broth, with additions as required per species growth requirements (e.g. 3% lysed horse blood for fastidious organisms such as S. pneumoniae). A direct colony suspension in saline was prepared from colonies on an overnight agar plate to achieve a turbidity equivalent to 0.5 McFarland standard, which was subsequently diluted into the assay plate to achieve 5×10^5 CFU/mL. Assays plates were prepared by 2-fold dilution of compound across the plate and included a positive growth control.

[2] = test system: Streptococcus pneumoniae (ATCC 49619); experiment: as above; format: cell-based; settings: 35° C., 16-20 hours; for MIC Streptococcus pneumoniae (ATCC 49619): 3% lysed horse blood
From the text: as §1, §2

CNC[C@]1(C)C[C@@H](OC(=O)COc2ccc3c(c2F)B(O)OC3)[C@]2(C)[C@H](C)CC[C@]3(CCC(=O)[C@H]32)[C@@H](C)[C@@H]1O [Compound 32, (3aR,4R,5R,7S,8S,9R,9aS,12R)-8-hydroxy-4,7,9,12-tetramethyl-7-((methylamino)methyl)-3-oxodecahydro-4,9a-propanocyclopenta[8]annulen-5-yl2-((7-fluoro-1-hydroxy-1,3-dihydrobenzo[c][1,2]oxaborol-6-yl)oxy)acetate]
MIC Staphylococcus aureus, MRSA (ATCC 33591) [1]: B (0.5-2 is B)
MIC Streptococcus pneumoniae (ATCC 49619) [2]: C (4-32 is C)

C[C@@H]1CC[C@@]23CCC(=O)[C@H]2[C@]1(C)[C@H](OC(=O)COc1ccc2c(c1F)B(O)OC2)C[C@@](C)(CN(C)C)[C@@H](O)[C@@H]3C [Compound 33, (3aR,4R,5R,7S,8S,9R,9aS,12R)-7-((dimethylamino)methyl)-8-hydroxy-4,7,9,12-tetramethyl-3-oxodecahydro-4,9a-propanocyclopenta[8]annulen-5-yl2-((7-fluoro-1-hydroxy-1,3-dihydrobenzo[c][1,2]oxaborol-6-yl)oxy)acetate]
MIC Staphylococcus aureus, MRSA (ATCC 33591) [1]: B (0.5-2 is B)
MIC Streptococcus pneumoniae (ATCC 49619) [2]: C (4-32 is C)

CCNC[C@]1(C)C[C@@H](OC(=O)COc2ccc3c(c2F)B(O)OC3)[C@]2(C)[C@H](C)CC[C@]3(CCC(=O)[C@H]32)[C@@H](C)[C@@H]1O [Compound 34, (3aR,4R,5R,7S,8S,9R,9aS,12R)-7-((ethylamino)methyl)-8-hydroxy-4,7,9,12-tetramethyl-3-oxodecahydro-4,9a-propanocyclopenta[8]annulen-5-yl2-((7-fluoro-1-hydroxy-1,3-dihydrobenzo[c][1,2]oxaborol-6-yl)oxy)acetate]
MIC Staphylococcus aureus, MRSA (ATCC 33591) [1]: C (4-32 is C)
MIC Streptococcus pneumoniae (ATCC 49619) [2]: C (4-32 is C)

CCCNC[C@]1(C)C[C@@H](OC(=O)COc2ccc3c(c2F)B(O)OC3)[C@]2(C)[C@H](C)CC[C@]3(CCC(=O)[C@H]32)[C@@H](C)[C@@H]1O [Compound 35, (3aR,4R,5R,7S,8S,9R,9aS,12R)-8-hydroxy-4,7,9,12-tetramethyl-3-oxo-7-((propylamino)methyl)decahydro-4,9a-propanocyclopenta[8]annulen-5-yl2-((7-fluoro-1-hydroxy-1,3-dihydrobenzo[c][1,2]oxaborol-6-yl)oxy)acetate]
MIC Staphylococcus aureus, MRSA (ATCC 33591) [1]: C (4-32 is C)
MIC Streptococcus pneumoniae (ATCC 49619) [2]: C (4-32 is C)

CCCCNC[C@]1(C)C[C@@H](OC(=O)COc2ccc3c(c2F)B(O)OC3)[C@]2(C)[C@H](C)CC[C@]3(CCC(=O)[C@H]32)[C@@H](C)[C@@H]1O [Compound 36, (3aR,4R,5R,7S,8S,9R,9aS,12R)-7-((butylamino)methyl)-8-hydroxy-4,7,9,12-tetramethyl-3-oxodecahydro-4,9a-propanocyclopenta[8]annulen-5-yl2-((7-fluoro-1-hydroxy-1,3-dihydrobenzo[c][1,2]oxaborol-6-yl)oxy)acetate]
MIC Staphylococcus aureus, MRSA (ATCC 33591) [1]: B (0.5-2 is B)
MIC Streptococcus pneumoniae (ATCC 49619) [2]: C (4-32 is C)

C[C@@H]1CC[C@@]23CCC(=O)[C@H]2[C@]1(C)[C@H](OC(=O)COc1ccc2c(c1F)B(O)OC2)C[C@@](C)(CNC1CC1)[C@@H](O)[C@@H]3C [Compound 37, (3aR,4R,5R,7S,8S,9R,9aS,12R)-7-((cyclopropylamino)methyl)-8-hydroxy-4,7,9,12-tetramethyl-3-oxodecahydro-4,9a-propanocyclopenta[8]annulen-5-yl2-((7-fluoro-1-hydroxy-1,3-dihydrobenzo[c][1,2]oxaborol-6-yl)oxy)acetate]
MIC Staphylococcus aureus, MRSA (ATCC 33591) [1]: B (0.5-2 is B)
MIC Streptococcus pneumoniae (ATCC 49619) [2]: C (4-32 is C)

C[C@@H]1CC[C@@]23CCC(=O)[C@H]2[C@]1(C)[C@H](OC(=O)COc1ccc2c(c1F)B(O)OC2)C[C@@](C)(CN1CCC1)[C@@H](O)[C@@H]3C [Compound 38, (3aR,4R,5R,7S,8S,9R,9aS,12R)-7-(azetidin-1-ylmethyl)-8-hydroxy-4,7,9,12-tetramethyl-3-oxodecahydro-4,9a-propanocyclopenta[8]annulen-5-yl2-((7-fluoro-1-hydroxy-1,3-dihydrobenzo[c][1,2]oxaborol-6-yl)oxy)acetate]
MIC Staphylococcus aureus, MRSA (ATCC 33591) [1]: B (0.5-2 is B)
MIC Streptococcus pneumoniae (ATCC 49619) [2]: C (4-32 is C)

C[C@@H]1CC[C@@]23CCC(=O)[C@H]2[C@]1(C)[C@H](OC(=O)COc1ccc2c(c1F)B(O)OC2)C[C@@](C)(CCN1CCC1)[C@@H](O)[C@@H]3C [Compound 39, (3aR,4R,5R,7R,8S,9R,9aS,12R)-7-(2-(azetidin-1-yl)ethyl)-8-hydroxy-4,7,9,12-tetramethyl-3-oxodecahydro-4,9a-propanocyclopenta[8]annulen-5-yl2-((7-fluoro-1-hydroxy-1,3-dihydrobenzo[c][1,2]oxaborol-6-yl)oxy)acetate]
MIC Staphylococcus aureus, MRSA (ATCC 33591) [1]: C (4-32 is C)
MIC Streptococcus pneumoniae (ATCC 49619) [2]: C (4-32 is C)

C[C@@H]1CC[C@@]23CCC(=O)[C@H]2[C@]1(C)[C@H](OC(=O)COc1ccc2c(c1F)B(O)OC2)C[C@@](C)(CCN1CCCCC1)[C@@H](O)[C@@H]3C [Compound 40, (3aR,4R,5R,7R,8S,9R,9aS,12R)-8-hydroxy-4,7,9,12-tetramethyl-3-oxo-7-(2-(piperidin-1-yl)ethyl)decahydro-4,9a-propanocyclopenta[8]annulen-5-yl2-((7-fluoro-1-hydroxy-1,3-dihydrobenzo[c][1,2]oxaborol-6-yl)oxy)acetate]
MIC Staphylococcus aureus, MRSA (ATCC 33591) [1]: C (4-32 is C)
MIC Streptococcus pneumoniae (ATCC 49619) [2]: D (≥64 is D)

C[C@@H]1CC[C@@]23CCC(=O)[C@H]2[C@]1(C)[C@H](OC(=O)COc1ccc2c(c1F)B(O)OC2)C[C@@](C)(CCN1CCOCC1)[C@@H](O)[C@@H]3C [Compound 41, (3aR,4R,5R,7R,8S,9R,9aS,12R)-8-hydroxy-4,7,9,12-tetramethyl-7-(2-morpholinoethyl)-3-oxodecahydro-4,9a-propanocyclopenta[8]annulen-5-yl 2-((7-fluoro-1-hydroxy-1,3-dihydrobenzo[c][1,2]oxaborol-6-yl)oxy)acetate]
MIC ([1]; Staphylococcus aureus): 4 to 32 µg/mL (≈ 6.5 to 52 µM)
MIC ([2]; Streptococcus pneumoniae, ATCC49619, 3% lysed horse blood): 4 to 32 µg/mL (≈ 6.5 to 52 µM)

CCN(CC)CC[C@]1(C)C[C@@H](OC(=O)COc2ccc3c(c2F)B(O)OC3)[C@]2(C)[C@H](C)CC[C@]3(CCC(=O)[C@H]32)[C@@H](C)[C@@H]1O [Compound 42, (3aR,4R,5R,7R,8S,9R,9aS,12R)-7-(2-(diethylamino)ethyl)-8-hydroxy-4,7,9,12-tetramethyl-3-oxodecahydro-4,9a-propanocyclopenta[8]annulen-5-yl2-((7-fluoro-1-hydroxy-1,3-dihydrobenzo[c][1,2]oxaborol-6-yl)oxy)acetate]
MIC Staphylococcus aureus, MRSA (ATCC 33591) [1]: C (4-32 is C)
MIC Streptococcus pneumoniae (ATCC 49619) [2]: D (≥64 is D)

C[C@@H]1CC[C@@]23CCC(=O)[C@H]2[C@]1(C)[C@H](OC(=O)COc1ccc2c(c1F)B(O)OC2)C[C@@](C)(C=NO)[C@@H](O)[C@@H]3C [Compound 43, (3aR,4R,5R,7S,8S,9R,9aS,12R)-8-hydroxy-7-((hydroxyimino)methyl)-4,7,9,12-tetramethyl-3-oxodecahydro-4,9a-propanocyclopenta[8]annulen-5-yl2-((7-fluoro-1-hydroxy-1,3-dihydrobenzo[c][1,2]oxaborol-6-yl)oxy)acetate]
MIC Staphylococcus aureus, MRSA (ATCC 33591) [1]: A (MIC of ≤0.25 is A)
MIC Streptococcus pneumoniae (ATCC 49619) [2]: C (4-32 is C)

CON=C[C@]1(C)C[C@@H](OC(=O)COc2ccc3c(c2F)B(O)OC3)[C@]2(C)[C@H](C)CC[C@]3(CCC(=O)[C@H]32)[C@@H](C)[C@@H]1O [Compound 44, (3aR,4R,5R,7S,8S,9R,9aS,12R)-8-hydroxy-7-((methoxyimino)methyl)-4,7,9,12-tetramethyl-3-oxodecahydro-4,9a-propanocyclopenta[8]annulen-5-yl2-((7-fluoro-1-hydroxy-1,3-dihydrobenzo[c][1,2]oxaborol-6-yl)oxy)acetate]
MIC Staphylococcus aureus, MRSA (ATCC 33591) [1]: A (MIC of ≤0.25 is A)
MIC Streptococcus pneumoniae (ATCC 49619) [2]: C (4-32 is C)

CONC[C@]1(C)C[C@@H](OC(=O)COc2ccc3c(c2F)B(O)OC3)[C@]2(C)[C@H](C)CC[C@]3(CCC(=O)[C@H]32)[C@@H](C)[C@@H]1O [Compound 45, (3aR,4R,5R,7S,8S,9R,9aS,12R)-8-hydroxy-7-((methoxyamino)methyl)-4,7,9,12-tetramethyl-3-oxodecahydro-4,9a-propanocyclopenta[8]annulen-5-yl2-((7-fluoro-1-hydroxy-1,3-dihydrobenzo[c][1,2]oxaborol-6-yl)oxy)acetate]
MIC Staphylococcus aureus, MRSA (ATCC 33591) [1]: B (0.5-2 is B)
MIC Streptococcus pneumoniae (ATCC 49619) [2]: C (4-32 is C)

CC(C)ON=C[C@]1(C)C[C@@H](OC(=O)COc2ccc3c(c2F)B(O)OC3)[C@]2(C)[C@H](C)CC[C@]3(CCC(=O)[C@H]32)[C@@H](C)[C@@H]1O [Compound 46, (3aR,4R,5R,7S,8S,9R,9aS,12R)-8-hydroxy-7-((isopropoxyimino)methyl)-4,7,9,12-tetramethyl-3-oxodecahydro-4,9a-propanocyclopenta[8]annulen-5-yl2-((7-fluoro-1-hydroxy-1,3-dihydrobenzo[c][1,2]oxaborol-6-yl)oxy)acetate]
MIC Staphylococcus aureus, MRSA (ATCC 33591) [1]: B (0.5-2 is B)
MIC Streptococcus pneumoniae (ATCC 49619) [2]: C (4-32 is C)
